Measured values from patent publication US9359196B2, “Antiproliferative compositions comprising curcumin analogs and methods of producing and using same” (The Board of Regents of the University of Oklahoma, priority 2009, dated 2016).
Values belong to the molecule of their own block, whether it stands above or below them.

Key:
Solubility in solvents = format: physicochemical
Excerpt: The goal was to synthesize compounds that can be inserted into lipid carriers, such as liposomes. […] The retention of activity by compounds with 12-14 carbon unsaturated a chain modification is encouraging, for it enables the incorporation of these compounds in a lipid carrier system. […] This appears to be the first report where piperidinyl nitrogen of chalcones has been modified with lipid chains.

H441 cells [1] = assay: Transmission electron microscopy of treated H441 cells (autophagy); format: cell-based, human; conditions: 24 hour treatment, 1 and 10 μM
Experimental: Transmission Electron Microscopy (TEM): TEM was performed after 24 hour treatment with 1 and 10 μM of compound 1 or compound 29 (CLEFMA). The cells were fixed in 0.1M sodium cacodylate buffer containing 4% paraformaldehyde (PFA) and 2% glutaraldehyde for 4 h at room temperature. The samples were post-fixed in 1% osmium tetroxide for 1.5 h and washed with 0.1M sodium cacodylate buffer, followed by dehydration in an ethanol series of 50%, 60%, 75%, 85%, and 95% for 15 minutes each. The cells were washed twice in 100% Ethanol and passed through a series of epon-araldite (6.2 g epon+4.4 g araldite+12.4 g of dodecenyl succinic anhydride+0.8 g N,N-dimethylbenzylamine) solution in ethanol, [Matsko et al., 2005] before embedding the cells in epon-araldite resin. Finally, 100 nm sections were cut using a microtome, and the sections were placed on glow-discharged 300 mesh Copper grids. The ultrasections were stained with Sato's lead (mixture of calcinated lead citrate, lead nitrate, lead acetate and sodium citrate), and observed by a Hitachi H-7600 Transmission Electron Microscope at 2500× (Oklahoma Medical Research Foundation Imaging and core facility, Oklahoma City).

H441 cells [2] = assay: Monodansylcadaverine fluorescence microscopy of autophagosomes in H441 cells; format: cell-based, human
Experimental: Monodansylcadaverine (MDC) is an autofluorescent marker for autophagic vacuoles. [Biederbick et al., 1995] It was found the emergence of intense MDC-fluorescence in the treated cells. The fluorescence vanished when the cells were treated with 3-methyl adenine (3-MA). […] [Seglen et al., 1982]

[3] = test system: lung adenocarcinoma cell line H441; assay: Cell proliferation (hexosaminidase assay) in lung adenocarcinoma H441 cells, Example 1; format: cell-based, human; conditions: Homo sapiens, NCI-H441, 24 h of treatment, 1-100 μM tested, fitted plot, read-out: IC50 value
Experimental: Cell Proliferation Studies: In order to assess the anti-proliferative activity of the synthesized compounds, an in vitro cell culture system of lung adenocarcinoma cell line H441 was used. The cell detachment and anti-proliferative activity was measured as a decrease in hexosaminidase enzyme activity associated with remainder of the adhered cells. [Landegren, 1984] […] The concentration versus cell proliferation plots were analyzed by an exponential fit (Table 1). The results were compared with the anti-proliferative activity of compound 1.
Cell Culture and drug treatment: Human lung adenocarcinoma cell line NCI-H441 (ATCC Number: HTB-174) was obtained from the American Type Culture Collection (Manassas, Va.). H441 cells were maintained at 37° C. with 5% CO2 in McCoy's 5A Medium (Invitrogen, Carlsbad, Calif.) supplemented with 5% heat-inactivated fetal bovine serum (FBS). All media contained gentamicin at 50 μg/ml (GIBCO Laboratories, Grand Island, N.Y.). Other cells lines (PANC-1, MiaPaCa-2 and PC-3) were also similarly maintained, except that the cell culture medium was RPMI 1640 instead of McCoy's.
To evaluate the anti-proliferative activity of synthesized bis(2-fluorobenzylidene)-4-piperidone and its derivatives, the cells were seeded in 96-well flat-bottom tissue culture plates at a density of 10×10^3 cells per well. The cells were allowed to attach and grow overnight. The test compounds were solubilized in dimethyl sulfoxide (DMSO), filtered through 0.2 μm nylon filter and added to cells at 1, 10, 25 and 100 μM concentrations in culture medium supplemented with 5% FBS. The DMSO concentration was maintained at 0.1% per well. Control wells received equivalent volume of DMSO without any test compounds. The cells were allowed to remain in the treatment medium for 24, 48 and 72 hours.
Cell Proliferation: The total number of cells after the treatment period was estimated by the hexosaminidase assay. [Landegren, 1984] Briefly, the medium was removed and hexosaminidase substrate solution in citrate buffer pH 5 (7.5 mM), […] (Calbiochem, San Diego, Calif.) was added at 60 μl per well. The plate was incubated at 37° C. in 100% humidity for 30 minutes, before stopping the reaction with 90 μl of 50 mM glycine containing 5 mM of EDTA (pH 10.4). The absorbance was measured at 405 nm. The experiments were conducted in triplicate, and repeated at least twice. The data were analyzed as percent of control, where the control wells were treated with equivalent amounts of DMSO alone, and the analyzed data was presented as average±standard error of mean. The differences among mean values were deemed significant at p<0.05.
For IC50 calculations, a plot between the drug concentration and hexosaminidase activity was generated and the data was fitted either linearly or exponentially. The best fit was used for further processing of data.

[4] = test system: Human lung adenocarcinoma cell line NCI-H441; assay: In vitro anti-proliferative activity in H441 cells (hexosaminidase), Example 2; format: cell-based
Experimental: Human lung adenocarcinoma cell line NCI-H441 (ATCC # HTB-174) and normal lung fibroblasts LL-24 (ATCC #CCL-151) were obtained from American Type Culture Collection (Manassas, Va.). The cells were maintained at 37° C. with 5% CO2 in RPMI 1640 medium (Invitrogen, Carlsbad, Calif.). The medium was supplemented with 10% heat-inactivated fetal bovine serum and 50 μg/ml of gentamicin (GIBCO Laboratories, Grand Island, N.Y.). For cell proliferation assay, the cells were seeded in 96-well flat-bottom tissue culture plates at a density of 0.5−1×10^4 cells per well. The cells were allowed to adhere and grow overnight, followed by treatment with CLEFMA or CLEFMA-liposomes. The concentration of CLEFMA was maintained in the range of 0.1-25 μM in 100 μl of RPMI 1640 medium. For comparison, the cells were also treated with 1 and 10 μM natural curcumin and EF24. EF24 is a potent synthetic curcuminoid and a close analog of CLEFMA [Adams et al., 2004]. All solutions of plain drugs were made in dimethylsulfoxide (DMSO). The concentration of DMSO in the treatment medium was maintained at 0.1%. The control wells received equivalent amounts of DMSO or phospholipid-matched control liposomes. Inhibition of cell proliferation was determined by measuring a decrease in hexosaminidase activity as described by Landegren [Landegren, 1984]. Para-nitrophenol-N-acetyl-beta-D-glucosaminide (60 μl per well) was used as the substrate for the hexosaminidase enzyme. The results of hexosaminidase assay were also confirmed by visualization of cultured cells under a microscope.

- melting point: 70 to 71 °C
SMILES: CCCCCCCCCCCCCCCCCC(=O)N1CC(=Cc2ccccc2F)C(=O)C(=Cc2ccccc2F)C1 [Compound 25, 3,5-Bis-(2-fluorobenzylidene)-1-octadecanoyl-4-piperidone]
- solubility in solvents (Solubility in solvents): insoluble in all common solvents except chloroform

- IC50 [3]: 44 µM
SMILES: O=C1C(=Cc2ccccc2F)CNCC1=Cc1ccccc1F [Compound 1, 3,5-Bis(2-fluorobenzylidene)-4-piperidone, reference compound]
- change in cellular architecture (TEM) (H441 cells [1]): induced a substantial change in cellular architecture
- autophagosome formation (MDC fluorescence) (H441 cells [2]): appearance of intracellular vacuoles or autophagosomes

SMILES: N[C@@H](CCC(=O)N[C@@H](CS)C(=O)NCC(=O)O)C(=O)O [Glutathione, glutathione]
- anti-proliferative activity in H441 cells [4]: not anti-proliferative by itself
